Source: publication PMC12348509, “Classical Paal-Knorr Cyclization for Synthesis of Pyrrole-Based Aryl Hydrazones and In Vitro/In Vivo Evaluation on Pharmacological Models of Parkinson’s Disease” (Molecules, 2025)

Legend:
[1] = test system: rat brain synaptosomes
[2] = test system: rat brain mitochondria; assay: MDA production in brain mitochondria, substances applied alone; type: cell-based; conditions: 100 µM, vs untreated mitochondria
Protocol: To the mitochondria, 0.3 mL of 0.2% thiobarbituric acid and 0.25 mL of sulfuric acid (0.05 M) were added, and the mixture was boiled for 30 min. After boiling, the tubes were placed on ice, and 0.4 mL of n-butanol was added to each tube, which was then centrifuged at 3500× g for 10 min. The amount of MDA was determined spectrophotometrically at 532 nm.

[3] = test system: rat brain microsomes; conditions: 100 µM combined with Fe2+/AA
[4] = target: T1, human recombinant MAOA enzyme (hMAOA) (Homo sapiens, UniProt P21397); assay: Human recombinant MAOA enzyme activity (Amplex Red, fluorimetric); type: biochemical; conditions: for IC50: read-out: IC50 (EC50), (µM ± SD) hMAOA
T1 construct: purchased
T1 sequence (P21397 1-527): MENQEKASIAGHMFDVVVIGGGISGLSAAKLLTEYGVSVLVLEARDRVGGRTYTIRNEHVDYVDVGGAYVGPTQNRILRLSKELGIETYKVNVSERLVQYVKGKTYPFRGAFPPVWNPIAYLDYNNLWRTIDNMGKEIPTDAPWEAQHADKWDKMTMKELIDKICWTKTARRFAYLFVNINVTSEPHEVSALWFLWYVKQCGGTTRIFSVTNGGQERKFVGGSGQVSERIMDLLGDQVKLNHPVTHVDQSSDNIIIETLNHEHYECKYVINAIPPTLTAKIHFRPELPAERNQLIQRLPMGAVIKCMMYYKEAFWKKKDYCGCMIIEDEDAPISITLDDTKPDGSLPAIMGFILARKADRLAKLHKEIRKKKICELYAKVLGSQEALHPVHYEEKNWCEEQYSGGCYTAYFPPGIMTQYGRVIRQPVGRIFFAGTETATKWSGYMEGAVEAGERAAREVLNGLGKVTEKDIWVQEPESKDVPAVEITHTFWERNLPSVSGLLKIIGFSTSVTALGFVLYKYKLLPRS
Protocol: (§1) Working solutions of the test substances, reagents, and human recombinant MAOA/B enzyme (hMAOA/B) were prepared in a reaction buffer according to the manufacturer’s instructions. The substances were applied at a final concentration of 1 µM. The substances, together with hMAOA/B, were placed in a 96-well plate (eight samples for each substance), and the plate was placed in an incubator for 30 min (in the dark, at 37 °C). The activity of recombinant human MAOA/B was determined fluorimetrically at two wavelengths (570 nm and 690 nm) with fluorimetric readings performed in a Synergy 2 Microplate Reader. Tyramine hydrochloride was used as the substrate. The activity was determined by detecting H2O2 production. This production is reported by binding to horseradish peroxidase using N-acetyl-3,7-dihydroxyphenoxazine (AmplexRed, Thermo Fisher Scientific, Waltham, MA, USA).

[5] = test system: rat brain mitochondria; assay: GSH level in brain mitochondria, substances applied alone; conditions: 100 µM, vs untreated mitochondria
[6] = target: T2, human recombinant MAOB enzyme (hMAOB) (Homo sapiens, UniProt P27338); assay: Human recombinant MAOB enzyme activity (Amplex Red, fluorimetric); type: biochemical; conditions: for inhibition at 1 µM: read-out: hMAOB inhibitory effect (decrease of enzyme activity); for IC50: read-out: IC50 (EC50), (µM ± SD) hMAOB
T2 construct: purchased
T2 sequence (P27338 1-520): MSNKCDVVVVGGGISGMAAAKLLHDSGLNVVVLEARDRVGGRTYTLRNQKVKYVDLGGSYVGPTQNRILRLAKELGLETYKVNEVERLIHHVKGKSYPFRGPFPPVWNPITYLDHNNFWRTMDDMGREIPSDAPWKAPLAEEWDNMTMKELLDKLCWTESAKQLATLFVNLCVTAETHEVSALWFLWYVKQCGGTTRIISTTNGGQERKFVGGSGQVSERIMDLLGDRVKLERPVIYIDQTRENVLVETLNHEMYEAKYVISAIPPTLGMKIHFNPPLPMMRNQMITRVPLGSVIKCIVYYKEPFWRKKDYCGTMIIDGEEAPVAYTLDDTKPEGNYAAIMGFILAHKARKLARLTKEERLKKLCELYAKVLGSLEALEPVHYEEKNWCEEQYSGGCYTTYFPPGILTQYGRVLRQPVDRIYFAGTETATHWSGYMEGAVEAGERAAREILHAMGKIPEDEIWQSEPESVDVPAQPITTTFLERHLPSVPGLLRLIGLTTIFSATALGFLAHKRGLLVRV
Protocol: as §1

[7] = test system: rat brain microsomes; assay: MDA production in brain microsomes, substances applied alone; type: cell-based; conditions: 100 µM, vs untreated microsomes
Protocol: The brain was homogenized in nine volumes of 0.1 M Tris buffer containing 0.1 mM dithiothreitol, 0.1 mM phenylmethylsulfonyl fluoride, 0.2 mM EDTA, 1.15% KCl, and 20% (v/v) glycerol (pH 7.4). The resulting homogenate was centrifuged twice at 17,000× g for 30 min. The supernatants from the two centrifugations were pooled and centrifuged twice at 100,000× g for 1 h. The pellet was then frozen in 0.1 M Tris buffer.

[8] = test system: rat brain mitochondria; conditions: 100 µM combined with t-BuOOH
[9] = test system: Rotenone-induced model of Parkinsonism in mice; assay: Rotenone-induced model of Parkinsonism in mice, brain histopathology (H&E); type: in vivo
Protocol: The histological morphology of the mouse brains, mainly the areas of the […] and cerebellum, was examined microscopically.
The samples from mouse brains were fixed in 10% buffered neutral formalin solution. The fixed materials were dehydrated in ascending grades of alcohol: 50°, 60°, 70°, 80°, 90°, 96°, and absolute alcohol. After dehydration, the samples were cleared with xylene and embedded in paraffin blocks. Sections with a thickness of 5 μm were prepared using a rotary microtome. The sections were attached to slides using histological glue, processed with xylene, rehydrated using a descending alcohol row–absolute alcohol, 96°, 90°, 80°, 70°, 60°, and 50°, and finally stained with Hematoxylin-Eosin [57]. Microscopic examination and photography were performed using a Levenhuk D740T light microscope with an integrated camera.

[10] = test system: MAOB; set-up: method as in PMID 36500572; conditions: 1 μmol; cited from earlier work
[11] = 150 µM, vs untreated synaptosomes
[12] = 100 µM with 6-OHDA 150 µM, compared to the toxic agent

| Compound | increase of MDA production in brain mitochondria vs control [2] [%] | decrease of GSH level in brain mitochondria vs control [5] [%] | increase of MDA production in brain microsomes vs control [7] [%] | also measured |
| --- | --- | --- | --- | --- |
| NCCc1cc(O)c(O)cc1O [6-OHDA, 6-hydroxydopamine, reference compound] |  |  |  | decrease of GSH level in synaptosomes by the toxic agent alone [1, 11]: 50%; decrease of synaptosomal viability by the toxic agent alone [1, 11]: 50% |
| CCOC(=O)c1cc(-c2ccc(Br)cc2)n(CCCC(=O)N/N=C/c2ccccc2)c1C [15a, (E)-Ethyl 1-(4-(2-benzylidenehydrazinyl)-4-oxobutyl)-5-(4-bromophenyl)-2-methyl-1H-pyrrole-3-carboxylate] | 59 | 15 | 52 | antioxidant effect vs Fe2+/AA (MDA production) [3]: most prominent effect on MDA production; IC50 [4]: > 200 µM; SI: hMAOB selectivity index = IC50(hMAOA)/IC50(hMAOB) [6]: >289; inhibition at 1 µM ([6]; 1 µM, vs control (pure hMAOB)): 50%; IC50 [6]: 0.692 µM |
| CCOC(=O)c1cc(-c2ccc(Br)cc2)n(CCCC(=O)N/N=C/c2ccccc2O)c1C [15b, (E)-Ethyl 5-(4-bromophenyl)-1-(4-(2-(2-hydroxybenzylidene)hydrazinyl)-4-oxobutyl)-2-methyl-1H-pyrrole-3-carboxylate] | 99 | 25 | 121 |  |
| CCOC(=O)c1cc(-c2ccc(Br)cc2)n(CCCC(=O)N/N=C/c2ccccc2F)c1C [15c, (E)-Ethyl 5-(4-bromophenyl)-1-(4-(2-(2-fluorobenzylidene)hydrazinyl)-4-oxobutyl)-2-methyl-1H-pyrrole-3-carboxylate] | 110 | 25 | 132 |  |
| CCOC(=O)c1cc(-c2ccc(Br)cc2)n(CCCC(=O)N/N=C/c2cccc(F)c2)c1C [15d, (E)-Ethyl 5-(4-bromophenyl)-1-(4-(2-(3-fluorobenzylidene)hydrazinyl)-4-oxobutyl)-2-methyl-1H-pyrrole-3-carboxylate] | 57 | 10 | 63 | neuroprotective effect vs t-BuOOH (GSH level and MDA production) [8]: most pronounced neuroprotection; IC50 [4]: > 200 µM; SI: hMAOB selectivity index = IC50(hMAOA)/IC50(hMAOB) [6]: >471; inhibition at 1 µM ([6]; 1 µM, vs control (pure hMAOB)): 60%; IC50 [6]: 0.425 µM; preservation of GSH level vs 6-OHDA [1, 12]: 20%; preservation of synaptosomal viability vs 6-OHDA [1, 12]: 15%; brain histology, in combination with rotenone ([9]; mice treated with rotenone plus 15d, light microscopy): preserved histoarchitectonics; brain histology, treated alone ([9]; mouse, in vivo): no microscopically visible changes |
| CCOC(=O)c1cc(-c2ccc(Br)cc2)n(CCCC(=O)N/N=C/c2ccc(OC)cc2)c1C [15e, (E)-Ethyl 5-(4-bromophenyl)-1-(4-(2-(4-methoxybenzylidene)hydrazinyl)-4-oxobutyl)-2-methyl-1H-pyrrole-3-carboxylate] | 119 | 20 | 149 |  |
| CCOC(=O)c1cc(-c2ccc(Br)cc2)n(CCCC(=O)N/N=C/c2ccc(N(C)C)cc2)c1C [15f, (E)-Ethyl 5-(4-bromophenyl)-1-(4-(2-(4-(dimethylamio)benzylidene)hydrazinyl)-4-oxobutyl)-2-methyl-1H-pyrrole-3-carboxylate] | 69 | 15 | 67 | hMAOA inhibitory effect (decrease of enzyme activity) ([4]; 1 µM, vs control (pure hMAOA)): 40%; IC50 [4]: 0.821 µM; SI: hMAOB selectivity index = IC50(hMAOA)/IC50(hMAOB) [6]: 1.16; hMAOB inhibitory effect (decrease of enzyme activity) ([6]; 1 µM, vs control (pure hMAOB)): 45%; IC50 [6]: 0.71 µM |
| CCOC(=O)c1cc(-c2ccc(Br)cc2)n(CCCC(=O)N/N=C/c2cccc(C=O)c2)c1C [15g, (E)-Ethyl 5-(4-bromophenyl)-1-(4-(2-(3-formylbenzylidene)hydrazinyl)-4-oxobutyl)-2-methyl-1H-pyrrole-3-carboxylate] | 143 | 20 | 158 |  |
| CCOC(=O)c1cc(-c2ccc(Br)cc2)n(CC(=O)NN)c1C [compound 11] |  |  |  | MAOB inhibition [10]: 26% |
| CCOC(=O)c1cc(-c2ccc(Br)cc2)n(CCC(=O)NN)c1C [compound 12] |  |  |  | MAOB inhibition [10]: 50% |
| CCOC(=O)c1cc(-c2ccc(Br)cc2)n(CCCC(=O)O)c1C [compound 13, 4-(5-(4-Bromophenyl)-3-(ethoxycarbonyl)-2-methyl-1H-pyrrole-1-yl)butanoic acid] | 79 | 15 | 93 |  |
| CCOC(=O)c1cc(-c2ccc(Br)cc2)n(CCCC(=O)NN)c1C [compound 15, Ethyl 5-(4-bromophenyl)-1-(4-hydrazinyl-4-oxobutyl)-2-methyl-1H-pyrrole-3-carboxylate] | 73 | 25 |  |  |
| C=C(C)[C@H]1Cc2c(ccc3c2O[C@@H]2COc4cc(OC)c(OC)cc4[C@@H]2C3=O)O1 [rotenone, reference compound] |  |  |  | brain histology, rotenone alone ([9]; cerebral cortex of mice treated with rotenone): distinct degenerative-necrotic changes |
